The values that follow come from ChEMBL document CHEMBL1127546, “New thiol inhibitors of neutral endopeptidase EC 3.4.24.11: synthesis and enzyme active-site recognition” (J Med Chem, 1994).

In assay [1] the target is T1, Neprilysin (Oryctolagus cuniculus, UniProt P08049).
T1 sequence (P08049 whole entry): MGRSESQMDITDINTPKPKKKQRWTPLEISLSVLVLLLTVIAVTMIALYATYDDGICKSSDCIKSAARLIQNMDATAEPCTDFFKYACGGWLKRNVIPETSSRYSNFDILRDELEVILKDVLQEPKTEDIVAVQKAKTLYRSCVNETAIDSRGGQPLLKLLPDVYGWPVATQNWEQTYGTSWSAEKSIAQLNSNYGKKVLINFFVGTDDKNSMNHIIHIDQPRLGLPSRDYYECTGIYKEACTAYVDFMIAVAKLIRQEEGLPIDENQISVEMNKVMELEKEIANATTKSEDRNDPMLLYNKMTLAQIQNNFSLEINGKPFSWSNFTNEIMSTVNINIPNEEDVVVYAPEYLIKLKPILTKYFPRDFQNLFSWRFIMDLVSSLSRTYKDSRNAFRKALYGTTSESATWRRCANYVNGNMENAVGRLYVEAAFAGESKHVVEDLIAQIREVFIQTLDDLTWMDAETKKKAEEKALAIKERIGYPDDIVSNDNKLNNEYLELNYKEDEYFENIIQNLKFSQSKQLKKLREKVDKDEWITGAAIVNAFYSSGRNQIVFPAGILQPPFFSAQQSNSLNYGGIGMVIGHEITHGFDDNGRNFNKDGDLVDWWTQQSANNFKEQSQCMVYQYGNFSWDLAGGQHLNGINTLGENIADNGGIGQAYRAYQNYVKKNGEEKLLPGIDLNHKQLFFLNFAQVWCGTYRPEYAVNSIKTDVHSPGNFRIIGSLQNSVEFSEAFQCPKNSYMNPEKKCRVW
The assay can be described thus: Tested for binding affinity against neutral endopeptidase (NEP).

Assay [2] addresses T2, Angiotensin-converting enzyme (Homo sapiens, UniProt P12821). The assay can be described thus: Tested for inhibitory potency against Angiotensin I converting enzyme.
Assay [3] deals with T1, Neprilysin. Description: Tested for inhibitory potency against neutral endopeptidase (NEP).
Assay [4] has as its target T2, Angiotensin-converting enzyme. Description: Tested for inhibitory potency against Angiotensin I Converting Enzyme.
The next assay concerns the target T3, Thermolysin (Bacillus thermoproteolyticus, UniProt P00800).
T3 sequence (P00800 whole entry): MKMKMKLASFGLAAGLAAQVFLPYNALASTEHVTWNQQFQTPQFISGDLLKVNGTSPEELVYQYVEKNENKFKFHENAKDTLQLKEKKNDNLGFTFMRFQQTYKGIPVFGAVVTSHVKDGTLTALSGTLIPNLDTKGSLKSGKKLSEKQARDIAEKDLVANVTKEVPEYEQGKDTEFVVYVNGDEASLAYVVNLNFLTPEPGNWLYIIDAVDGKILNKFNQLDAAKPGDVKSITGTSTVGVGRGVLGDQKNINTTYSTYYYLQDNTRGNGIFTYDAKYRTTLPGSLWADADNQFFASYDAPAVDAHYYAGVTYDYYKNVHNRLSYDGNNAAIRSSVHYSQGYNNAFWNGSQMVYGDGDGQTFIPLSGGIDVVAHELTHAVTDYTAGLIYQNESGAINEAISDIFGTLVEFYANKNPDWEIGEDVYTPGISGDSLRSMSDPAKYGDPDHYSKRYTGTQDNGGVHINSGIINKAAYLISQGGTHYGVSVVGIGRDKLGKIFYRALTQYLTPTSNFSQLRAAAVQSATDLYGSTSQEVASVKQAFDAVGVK
Description: Tested for binding affinity against Thermolysin. Further details: species or system Bacteria.

What is called Ki is the equilibrium dissociation constant of an inhibitor or competing ligand from its target. A lower Ki goes with tighter binding. By IC50 is commonly meant the midpoint of a concentration-inhibition curve. The low end stands for higher potency, the high end for lower potency.

T2 sequence (P12821 whole entry): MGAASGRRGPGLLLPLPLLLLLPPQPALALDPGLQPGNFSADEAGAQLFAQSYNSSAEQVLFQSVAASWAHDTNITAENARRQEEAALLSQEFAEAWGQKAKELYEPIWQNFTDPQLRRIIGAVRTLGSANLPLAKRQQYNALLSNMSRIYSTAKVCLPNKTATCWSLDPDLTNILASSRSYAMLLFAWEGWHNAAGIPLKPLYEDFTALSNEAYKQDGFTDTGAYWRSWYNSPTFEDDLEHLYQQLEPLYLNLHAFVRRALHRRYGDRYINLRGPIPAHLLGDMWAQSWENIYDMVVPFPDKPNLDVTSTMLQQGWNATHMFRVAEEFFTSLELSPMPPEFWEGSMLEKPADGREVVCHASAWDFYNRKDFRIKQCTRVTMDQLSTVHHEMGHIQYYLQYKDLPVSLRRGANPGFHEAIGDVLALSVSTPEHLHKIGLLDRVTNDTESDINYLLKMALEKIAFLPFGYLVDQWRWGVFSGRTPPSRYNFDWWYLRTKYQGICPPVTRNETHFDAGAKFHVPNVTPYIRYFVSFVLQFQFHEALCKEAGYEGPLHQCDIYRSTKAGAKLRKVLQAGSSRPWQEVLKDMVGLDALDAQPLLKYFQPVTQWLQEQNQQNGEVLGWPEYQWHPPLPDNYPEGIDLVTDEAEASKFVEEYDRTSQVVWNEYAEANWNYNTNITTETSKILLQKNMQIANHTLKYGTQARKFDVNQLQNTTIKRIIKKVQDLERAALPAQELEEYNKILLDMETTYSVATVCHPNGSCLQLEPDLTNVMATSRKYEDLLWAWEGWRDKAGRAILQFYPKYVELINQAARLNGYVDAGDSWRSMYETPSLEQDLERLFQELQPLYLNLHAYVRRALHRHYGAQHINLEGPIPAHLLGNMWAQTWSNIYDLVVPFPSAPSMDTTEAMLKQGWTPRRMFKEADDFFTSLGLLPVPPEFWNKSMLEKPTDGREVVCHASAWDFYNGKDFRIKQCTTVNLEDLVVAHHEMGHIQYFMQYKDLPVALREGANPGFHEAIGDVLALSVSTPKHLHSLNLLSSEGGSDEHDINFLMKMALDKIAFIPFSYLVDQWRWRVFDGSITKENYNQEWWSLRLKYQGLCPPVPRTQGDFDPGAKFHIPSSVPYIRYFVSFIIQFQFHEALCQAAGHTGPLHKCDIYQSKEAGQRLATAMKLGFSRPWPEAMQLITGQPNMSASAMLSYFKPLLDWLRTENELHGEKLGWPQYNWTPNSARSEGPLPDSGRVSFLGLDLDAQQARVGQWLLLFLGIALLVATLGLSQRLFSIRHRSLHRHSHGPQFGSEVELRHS

`O=C(O)C(CCc1ccccc1)N[C@@H](Cc1ccccc1)C(=O)NC[C@H](O)C(=O)O` (stereo partly specified) returned a Ki on Neprilysin [1] of 11 nM.

Regarding `CC(NC(=O)C(Cc1ccccc1)CC(S)Cc1ccccc1)C(=O)O` (stereo unspecified), the results for the half-maximal inhibitory concentration (IC50) (in assay [2]; on Neprilysin [3]) were 3.8 µM and 190 nM, respectively.

For `O=C(NC(Cc1ccc(O)cc1)C(=O)O)C(Cc1ccccc1)CC(S)Cc1ccccc1` (stereo unspecified), the half-maximal inhibitory concentration (IC50) was found to be 150 nM at Neprilysin [3] and 2.4 µM in assay [4].

Molecule `CC(C)C[C@H](NC(CCc1ccccc1)C(=O)O)C(=O)N[C@@H](Cc1c[nH]c2ccccc12)C(=O)O` (stereo partly specified) displayed a Ki on Thermolysin of 50 nM.

`O=C(O)CCNC(=O)C(Cc1ccccc1)CC(Cc1ccccc1)C(=O)O` (stereo unspecified) came in with a concentration for half-maximal inhibition (IC50) against Neprilysin [3] of 18 nM.

`CCC(C)C(CC(S)Cc1ccccc1)C(=O)O` (stereo unspecified): the IC50 is 250 nM at Neprilysin [3] and 4 µM in assay [4].

For `CCC(C)C(S)CC(C(=O)NC(Cc1ccc(O)cc1)C(N)=O)C(C)CC` (stereo unspecified), the results for the IC50 (against Neprilysin [3]; in assay [4]) were 360 nM and 4 µM, respectively.

Regarding `CCC(C)C(S)CC(C(=O)NC(Cc1ccc(O)cc1)C(=O)O)C(C)CC` (stereo unspecified), the results for the IC50 (on Neprilysin [3]; in assay [4]) were 380 nM and 3.4 µM, respectively.

Turning to `O=C(O)C1CCCN1C(=O)C(Cc1ccccc1)CC(S)Cc1ccccc1` (stereo unspecified), the results for the IC50 (against Neprilysin [3]; in assay [4]) were 320 nM and 3.6 µM, respectively.

For the molecule `O=C(O)CCNC(=O)C(Cc1ccccc1)CC(S)Cc1ccccc1` (stereo unspecified), the IC50 stood at 290 nM at Neprilysin [3] and 3.5 µM in assay [4].

In the case of `CCC(C)C(S)CC(Cc1ccccc1)C(=O)NC(Cc1ccc(O)cc1)C(N)=O` (stereo unspecified), the values for the IC50 (at Neprilysin [3]; in assay [4]) were 350 nM and 3.5 µM, respectively.

As to `CCC(C)C(CC(S)CCc1ccccc1)C(=O)NC(Cc1ccc(O)cc1)C(=O)O` (stereo unspecified), the IC50 against Neprilysin [3] was determined as 260 nM; in assay [4] it was 2.9 µM.

Consider `CC(NC(=O)C(Cc1ccccc1)CC(S)c1ccccc1)C(=O)O` (stereo unspecified), for which the half-inhibitory concentration (IC50) against Neprilysin [3] amounted to 130 nM; in assay [4], 3.5 µM.

In the case of `CCC(C)C1CC(Cc2ccccc2)SC1=O` (stereo unspecified), the IC50 on Neprilysin [3] stood at 220 nM; in assay [4], 2.3 µM.

On to `CC(C)CC(S)C(Cc1ccccc1)C(=O)NC(C)C(=O)O` (stereo unspecified), for which the 50% inhibitory concentration (IC50) against Neprilysin [3] was 3.6 nM; on Thermolysin, 4000 nM.

In the case of `CCC(C)C(S)CC(Cc1ccccc1)C(=O)N[C@H](Cc1ccc(O)cc1)C(=O)O` (stereo partly specified), the IC50 was 320 nM at Neprilysin [3] and 8 µM in assay [4].

In the case of `CCC(C)C(CC(S)Cc1ccccc1)C(=O)NC(Cc1ccc(O)cc1)C(=O)O` (stereo unspecified), the IC50 stood at 220 nM against Neprilysin [3] and 0.8 µM in assay [4].

For `CCC(C)C(CC(S)Cc1ccccc1)C(=O)N1CCCC1C(=O)O` (stereo unspecified), the IC50 at Neprilysin [3] came to 350 nM; in assay [4], 2.8 µM.

As for `CCC(C)C(S)CC(Cc1ccccc1)C(=O)N[C@@H](Cc1ccc(O)cc1)C(=O)O` (stereo partly specified), the figures for the half-maximal inhibitory concentration (IC50) (on Neprilysin [3]; in assay [4]) were 270 nM and 4.4 µM, respectively.

Take `O=C(O)CNC(=O)[C@@H](CS)Cc1ccccc1` [THIORPHAN]: the IC50 at Thermolysin was found to be 1800 nM.
